# Laboratory results taken from US6512007B1, “Use of galiella lactone” (Bayer Aktiengesellschaft, priority 2000, dated 2003).
# Tested on: primary neurons of the rat cerebellum
# Assay: NMDA-mediated calcium influx into primary neurons after chronic IL-6 treatment
# Format: cell-based
# Experimental: Cultures of primary neurons were obtained from the cerebella of rats 6 to 8 days old as described by B. Engelsen and R. Bjerkvig [in R. I. Freshney (Editor) Culture of Animal Cells, 2nd Edition, Alan R. Liss, Inc. New York 1987, 277-279]. After removal of the tissue, single cells were obtained using papain and were seeded out in a density of 200 00 cells per well in microtitre plates (96 wells) coated with poly-D-lysine. The cells were cultivated in a growth medium consisting of DMEM/F12, 10% heat-inactivated horse serum. 25 mM KCl, 30 mM glucose, 2 mM glutamine. In order to minimize the number of glial cells, 5-fluoro-2′-deoxyuridine (20 μg/ml) was added on the first and fourth day in culture. The cultures obtained in this way consisted of more than 95% neurons.
# Human recombinant interluekin-6 (IL-6) was dissolved in physiological salt solution (Hank's balanced salt solution) and added to neuron cultures on days, 1, 4, 7 and 11 after the start of culturing (final) concentration 5 ng/ml). […]
# 12 days after the start of culturing, the N-methyl-D-asparate (NMDA)-induced changes in the intracellular calcium level were measured using a fluorescence plate reader (Ascent Fluoroscan). […] The cells were stimulated by adding NMDA (final concentration 200 μM) in the presence of glycine (final concentration 5 μM), and the fluroescence was measured at 15-second intervals over a period of one minute (excitation 485 nm. emission 530 nm). Intracellular calcium concentrations were calculated by the formula [Ca^2]i=Kd.
# The arithmetic means was formed from the intracellular calcium concentrations found at all four times of measurement, and the percentage change from the unstimulated controls (basa) calcium concentration) was calculated.
# Inhibition of the potentiation, induced chronic IL-6 administration, of the NMDA-mediated calcium influx into primary neurons of the rat cerebellum by galiella lactone. […] The average calcium concentration during the one-minute measurement period was calculated and expressed as a per cent of the basal intracellular calcium concentration. […]
smiles,measurement,setting,value
C[C@H]1C=C2C(=O)O[C@H]3CC[C@@H](C1)[C@@]23O [galiella lactone],IL-6-induced enhancement of the NMDA-mediated calcium influx,"1 μM before each IL-6 addition (5 ng/ml), NMDA 200 μM",completely prevented
same,NMDA-induced increase in average intracellular calcium concentration,"chronic administration 1 μM, NMDA 200 μM, without IL-6",somewhat reduced
same,effect on the basal calcium level,"chronic treatment, 1 μM, no NMDA",no effect
